Data taken from patent publication US20230181661A1, “MUSHROOM-CONTAINING CHINESE MEDICINE COMPOUND COMPOSITION FOR KELOID SCAR TISSUE AND APPLICATION THEREOF” (ASIA UNIVERSITY, priority 2021, published 2023).

Tested on: KFS cells
Assay: Cell metabolic activity assay (MTT assay)
Assay type: cell-based
Conditions: 6.25 to 100 micromolar concentration
Method: KFS cells were obtained from the Biosource Collection and Research Center (BCRC) of the Food Industry Research and Development Institute (Hsinchu, Taiwan). KFS cells were cultured in Dulbecco's modified eagle medium (DMEM) containing 10% FBS, 1.5 g/L sodium bicarbonate, 4 mM L-glutamine, 4.5 g/L glucose, 100 units/mL penicillin G, and 100 μg/mL streptomycin sulfate. All cells were incubated in a humidified environment with 5% CO2 and 37° C. The medium was refreshed every 2 days. KFS cells (2×10^4 cells/well) were seeded in 96-well plates overnight. KFS cells were exposed to different concentrations of a test drug in 100 μL of medium (for example, combination of 10 Chinese medicine ingredients). After 24 hours treatment, 10 μL of 5 mg/mL MTT (3-(4,5-dimethylthiazol-2-yl)-2,5-diphenyltetrazolium bromide) was added to each well. After incubation for 4 hours, cells were washed twice with 1×PBS. Next, 200 μL of dimethyl sulfoxide (DMSO) was added to each well. An absorbance value at 570 nm was determined for each well by using 650 nm as a reference wavelength. Compared with a control group (untreated with reagents), the absorbance may be correlated with the percentage of active cells. The cell metabolic activity rate is calculated as follows: Cell metabolic activity (%)=OD (treatment)/OD (control)×100%.

SMILES	growth of keloid fibroblasts
COc1cc(/C=C/C(=O)CC(=O)/C=C/c2ccc(O)c(OC)c2)ccc1O [Curcumin]	inhibit the growth
Oc1ccc(C=Cc2cc(O)cc(O)c2)cc1 [Resveratrol]	inhibit the growth
